# Publication PMC6260593, “Kaempferol and Kaempferol Rhamnosides with Depigmenting and Anti-Inflammatory Properties” (Molecules, 2011)
# Like-named read-outs stand apart in the source and are kept apart here.
# Tests used:
# [1] = tested on: NF-κB-mediated luciferase activity; assay: NF-κB-mediated luciferase assay in HEK293 cells; assay type: cell-based; settings: HEK293 cells transfected with NF-κB-Luc, PMA 0.1 μM, 24 h, read-out: Inhibitory activity [IC50] NF-κB-mediated luciferase activity
# Method: HEK293 cells (1 × 10^6 cells/mL) were transfected with plasmids containing NF-κB-Luc, (1 μg/mL each) as well as β-galactosidase (0.5 μg/mL) using the PEI method in a 12-well plate for 48 h, and they were treated with testing compounds in the presence or absence of PMA (0.1 μM) for 24 h. Luciferase assay was performed using the Luciferse Assay System (Promega).
# [2] = tested on: NO production in LPS-activated RAW264.7 cells; assay: Inhibition of NO production induced by LPS in RAW264.7 cells (Griess); assay type: cell-based; settings: Mus musculus, LPS 1 μg/mL, 24 h, read-out: Inhibitory activity [IC50] NO
# Method: The nitrite in the culture supernatants was measured by adding Griess reagent (100 μL, 1% sulfanilamide and 0.1% N-[1-naphthyl]-ethylenediamine dihydrochloride in 5% phosphoric acid) to samples of the medium (100 μL) for 10 min at room temperature. The OD at 570 nm (OD570) was measured using a Spectramax 250 microplate reader (Molecular Devices). A standard curve of NO was made with sodium nitrite.
# B16 melanoma cells [3] = assay: Depigmenting activity (melanin content) in B16 melanoma cells; assay type: cell-based; settings: for IC50: Mus musculus, 120 h, 5 days, melanin content, read-out: Inhibitory activity [IC50] Depigmentation
# Method: The cell pellets were then dissolved in 1 N NaOH in 10% DMSO (500 μL) at 80 °C for 1 h. The relative melanin content was determined by measuring the absorbance at 475 nm with an ELISA reader (Molecular Devices Corp., Menlo Park, CA, USA). A standard synthetic melanin curve (0–500 μg⁄mL) was prepared in triplicate for each experiment.
# in vitro = settings: mouse
# Method: (§1) The cytotoxic effect of kojyl thioether derivatives was then evaluated by a conventional MTT assay. At 3 h prior to culture termination, MTT solution (10 μL, 5 mg/mL in a phosphate buffered-saline, pH 7.4) was added and the cells were continuously cultured until termination. The incubation was halted by the addition of 15% sodium dodecyl sulfate into each well, solubilizing formazan. The absorbance at 570 nm (OD570–630) was measured by a Spectramax 250 microplate reader.
# RAW264.7 cells = assay: in vitro
# Method: as §1
# [4] = Cytotoxicity towards B16 melanoma cells; assay type: cell-based; settings: mouse, read-out: Inhibitory activity [IC50] Cytotoxicity
# B16 melanoma cells [5] = assay: Cytotoxicity towards B16 melanoma cells; assay type: cell-based
# iNOS mRNA = assay: Expression of iNOS mRNA in LPS-activated RAW 264.7 cells (RT-PCR); assay type: cell-based; settings: 25–100 μM, LPS 1 μg/mL for 6 h
# Method: RAW 264.7 cells were treated with different concentrations of compound 1 and 2 (25–100 μM) and then stimulated with LPS (1 μg/mL) for 6 h.
# The total RNA from the LPS treated-RAW264.7 cells was prepared by adding TRIzol Reagent (Gibco BRL), as per the manufacturer’s instructions. Real-time PCR reactions were conducted using MuLV reverse transcriptase. The primers (Bioneer, Daejeon, Korea) were used as previously reported.
# Tyrosinase = molecular target: Tyrosinase; design: method as in PMID 21050756; settings: previously reported, cited from earlier work; for IC50: means of three experiments, read-out: Inhibitory activity [IC50] Tyrosinase
IC50 ([1]; Homo sapiens) [µM],IC50 [2] [µM],IC50 (B16 melanoma cells [3]) [µM],IC50 at 24 h (in vitro) [µM],IC50 [1] [µM],Compound,Depigmenting inhibitory activity (in words) (B16 melanoma cells [3]),Cytotoxicity in the NO assay cells (in words) (RAW264.7 cells),IC50 [4] [µM],Cytotoxicity towards B16 melanoma cells (in words) (B16 melanoma cells [5]),Expression of iNOS mRNA (in words) (iNOS mRNA),IC50 (Tyrosinase) [µM],Tyrosinase inhibitory activity (in words) (Tyrosinase),IC50 at 24 h (in vitro; RAW264.7 cells) [µM],Cytotoxicity in the NO assay cells (in words) (RAW264.7 cells; RAW264.7 cells)
36.2 ± 3.3,37.7 ± 2,39.5 ± 0.4,> 100,–,"C[C@@H]1O[C@@H](Oc2cc(O)c3c(=O)c(O)c(-c4ccc(O)cc4)oc3c2)[C@H](O)[C@H](O)[C@H]1O [α-Rhamnoisorobin (2), kaempferol 7-O-α-L-rhamnopyranoside]",showed inhibitory activity,without cytotoxicity,22.9 ± 1.3,showed cytotoxicity towards B16 melanoma cells,suppressed the expression of iNOS mRNA in a dose-dependent manner,> 400,showed tyrosinase inhibitory activities,–,–
> 100,> 100,> 100,> 100,–,"C[C@@H]1O[C@@H](Oc2c(-c3ccc(O)cc3)oc3cc(O)cc(O)c3c2=O)[C@H](O)[C@H](O)[C@H]1O [Afzelin (3), kaempferol 3-O-α-L-rhamnopyranoside]",–,–,> 100,–,–,–,showed no inhibitory activities,–,–
–,–,171 ± 2.1,–,–,"OC[C@H]1O[C@@H](Oc2ccc(O)cc2)[C@H](O)[C@@H](O)[C@@H]1O [Arbutin, reference compound]",–,–,> 200,–,–,–,–,–,–

# The next lines start with the compound.
Compound,IC50 ([1]; Homo sapiens) [µM],IC50 [2] [µM],IC50 (B16 melanoma cells [3]) [µM],IC50 at 24 h (in vitro) [µM],IC50 [1] [µM],Depigmenting inhibitory activity (in words) (B16 melanoma cells [3]),Cytotoxicity in the NO assay cells (in words) (RAW264.7 cells),IC50 [4] [µM],Cytotoxicity towards B16 melanoma cells (in words) (B16 melanoma cells [5]),Expression of iNOS mRNA (in words) (iNOS mRNA),IC50 (Tyrosinase) [µM],Tyrosinase inhibitory activity (in words) (Tyrosinase),IC50 at 24 h (in vitro; RAW264.7 cells) [µM],Cytotoxicity in the NO assay cells (in words) (RAW264.7 cells; RAW264.7 cells)
"C[C@@H]1O[C@@H](Oc2cc(O)c3c(=O)c(O[C@@H]4O[C@@H](C)[C@H](O)[C@@H](O)[C@H]4O)c(-c4ccc(O)cc4)oc3c2)[C@H](O)[C@H](O)[C@H]1O [Kaempferitrin (4), kaempferol-3,7-O-α-dirhamnoside]",> 100,> 100,> 100,> 100,–,–,–,> 100,–,–,–,showed no inhibitory activities,–,–
"CC(=O)CCCCn1c(=O)c2c(ncn2C)n(C)c1=O [Pentoxifylline, pentoxifylline, reference compound]",–,446 ± 1.1,–,–,–,–,–,–,–,–,–,–,> 1000,–
"Cc1ccc(S(=O)(=O)/C=C/C#N)cc1 [BAY11-7082, reference compound]",–,–,–,–,11.5 ± 0.1,–,–,–,–,–,–,–,–,–
"O=c1c(O)c(-c2ccc(O)cc2)oc2cc(O)cc(O)c12 [Kaempferol (1), kaempferol]",90.3 ± 5.1,15.4 ± 0.2,37.66 ± 0.1,–,–,showed inhibitory activity,–,25.6 ± 0.9,showed cytotoxicity towards B16 melanoma cells,suppressed the expression of iNOS mRNA in a dose-dependent manner,171.4 ± 0.9,showed tyrosinase inhibitory activities,> 100,without cytotoxicity
